# Laboratory results from US10251845B2, “Fatty acid cysteamine conjugates and their use as activators of autophagy” (Catabasis Pharmaceuticals, Inc., priority 2014, dated 2019).
# How the values were obtained:
# [1] = Plasma stability, rat plasma; type: in vitro ADME
# Protocol: The in vitro stability of the test compounds was studied in human, mouse, beagle and rat plasma (plasma was purchased from Bioreclamation). Plasma was diluted to 50% with PBS (pH 7.4). Test compounds were dissolved in DMSO to a final concentration of 10 mM and then diluted to 1 mM in MeOH. Incubations were carried at a test compound concentration of 5 μM with a final DMSO concentration of 2.5%. Plasma (198 μL) was added to 96-well plate and incubated at 37° C. for 30 minutes before the addition of […] of the test compound. The resulting mixture was then incubated at 37° C. for 2 hours. At appropriate time intervals (0, 30, 60 and 120 minutes), aliquots (50 μL) were removed and reactions were terminated by adding 200 μL of acetonitrile with an internal standard. Simultaneously, plasma samples containing Benflourex or Procaine (control compound) were terminated by adding 200 μL of acetonitrile internal standard. The sample plate was centrifuged at 3500 rpm for 45 minutes at 4° C. and the supernatant was transferred to a new plate for analysis by LC/MS-MS (Agilent Model No: HPLC: 1200, MS: 6410). […] A binary gradient consisting of 0.1% formic acid in water and 0.1% formic acid in methanol was used for analyte elution.
# ΔF508 CFTR = ΔF508 CFTR (Homo sapiens, UniProt P13569, DEL508-508); assay: Ussing chamber short circuit current in Fisher Rat Thyroid epithelial cells overexpressing ΔF508-CFTR; type: cell-based; parameters: expressed in transfected cells; host or cells: Fisher Rat Thyroid (FRT) epithelial cells, stably transfected; conditions: FRT cells
# Protocol: The most prevalent disease causing mutation of the CF transmembrane conductance regulator (CFTR) chloride channel is the deletion of phenylalanine at position 508 in the primary sequence of CFTR (ΔF508-CFTR). This mutation causes a trafficking defect resulting in a severe reduction of ΔF508-CFTR protein at the cell surface. The trafficking defect can be corrected by incubation at low temperature (27° C. overnight) or pharmacologically by small molecules and CFTR correctors. Chloride transport function of Fisher Rat Thyroid (FRT) epithelial cells overexpressing ΔF508-CFTR in monolayers grown on Snapwell™ filter inserts will be monitored as the CFTR agonist evoked short circuit (ISC) current output of an Ussing epithelial voltage clamp apparatus. An objective of this study is to measure the ability of test compounds to restore function to defective ΔF508-CFTR in FRT epithelial cell monolayers.
# Measurement of corrector efficacy is divided into two phases. The initial phase is incubation of epithelia with the test compounds for a period of time (that can range from 2 hours to one or two days) in a 37° C. incubator and the second phase is measurement of epithelial ΔF508-CFTR chloride channel current with an epithelial voltage clamp (Ussing assay). The short circuit current (ISC) is measured under short circuit conditions (0 mV transepithelial potential). The ISC magnitude is an index of corrector efficacy and is compared to vehicle and positive control.
# Cryopreserved FRT cells stably transfected with ΔF508-CFTR cDNA (Pedemonte et al. (2005) J. CLIN. INVEST., 115, p. 2564-2571) were expanded and plated on Snapwell™ filters for measurement of short circuit current in an Ussing apparatus (Physiologic Instruments, Inc., Sand Diego, Calif.). Cells were grown in Coon's modification of Ham's F-12 media supplemented with zeocin and G-418.
# To conduct the assay, a compound of the invention was solubilized as follows: • 1) Prepare 25 mM stock solution in 100% DMSO. • 2) Dilute 12 μL of 25 mM stock solution in 1.20 mL of FBS to make 250 μM intermediate dilution 10× stock (1% DMSO, 99% FBS). Gently vortex all solutions until the solution becomes clear. • 3) Prepare final dilution of 10 μM in 10 mL of Coon's media per well (4 wells×2 mL per well bottom+0.2 mL per insert top=8.8 mL and 1.2 mL reserve for handling losses) by addition of 400 μL of 10× stock and 600 μL of 10× carrier (1% DMSO, 99% FBS) to 9000 μL of Coon's media.
# For this example, the test compound was solubilized and added to the appropriate inserts of Ussing chambers (n=4 for each test compound, final test concentration of 10 μM). A DMSO vehicle control and a positive control (VX-809 at 3 μM) were also used. For this particular example, all the test articles, including the positive control, were incubated with the cells for a period of 4 hours. The FRT cell monolayers grown on Snapwell™ filter inserts were transferred to Physiologic Instruments Ussing recording chambers (Physiologic Instruments, Inc., San Diego, Calif.) and superfused with HB-PS on the basolateral side and 78CF-PS on the apical side. One or more 6-channel or 8-channel Physiologic Instruments VCC MC6 or VCC MC8 epithelial voltage clamps were then used in combination to record the short circuit current (ISC) during the entire run. To initiate the ISC measurement, amphotericin (100 μM) was added to the basolateral side of the Snapwell™ filter insert to permeabilize the epithelial cells for 15 min. Forskolin (10 μM), IBMX (100 μM), Genistein (20 μM) and the CFTRinh-172 (20 μM) were added sequentially after the following incubation periods (15 min, 20 min, 10 min, 15 min and 15 min respectively). Data acquisition and analyses were performed using iWorx data acquisition hardware and Labscribe 2 software (iWorx, Dover, N.H.). […]
# [2] = II-3 (10 μM)+VX-809 (3 μM)+VX-770 (100 nM), 24 hours, positive control VX-809+VX-770 = 100%
# ΔF508 CFTR, sequence (P13569 with tags, fused parts or gaps DEL508-508): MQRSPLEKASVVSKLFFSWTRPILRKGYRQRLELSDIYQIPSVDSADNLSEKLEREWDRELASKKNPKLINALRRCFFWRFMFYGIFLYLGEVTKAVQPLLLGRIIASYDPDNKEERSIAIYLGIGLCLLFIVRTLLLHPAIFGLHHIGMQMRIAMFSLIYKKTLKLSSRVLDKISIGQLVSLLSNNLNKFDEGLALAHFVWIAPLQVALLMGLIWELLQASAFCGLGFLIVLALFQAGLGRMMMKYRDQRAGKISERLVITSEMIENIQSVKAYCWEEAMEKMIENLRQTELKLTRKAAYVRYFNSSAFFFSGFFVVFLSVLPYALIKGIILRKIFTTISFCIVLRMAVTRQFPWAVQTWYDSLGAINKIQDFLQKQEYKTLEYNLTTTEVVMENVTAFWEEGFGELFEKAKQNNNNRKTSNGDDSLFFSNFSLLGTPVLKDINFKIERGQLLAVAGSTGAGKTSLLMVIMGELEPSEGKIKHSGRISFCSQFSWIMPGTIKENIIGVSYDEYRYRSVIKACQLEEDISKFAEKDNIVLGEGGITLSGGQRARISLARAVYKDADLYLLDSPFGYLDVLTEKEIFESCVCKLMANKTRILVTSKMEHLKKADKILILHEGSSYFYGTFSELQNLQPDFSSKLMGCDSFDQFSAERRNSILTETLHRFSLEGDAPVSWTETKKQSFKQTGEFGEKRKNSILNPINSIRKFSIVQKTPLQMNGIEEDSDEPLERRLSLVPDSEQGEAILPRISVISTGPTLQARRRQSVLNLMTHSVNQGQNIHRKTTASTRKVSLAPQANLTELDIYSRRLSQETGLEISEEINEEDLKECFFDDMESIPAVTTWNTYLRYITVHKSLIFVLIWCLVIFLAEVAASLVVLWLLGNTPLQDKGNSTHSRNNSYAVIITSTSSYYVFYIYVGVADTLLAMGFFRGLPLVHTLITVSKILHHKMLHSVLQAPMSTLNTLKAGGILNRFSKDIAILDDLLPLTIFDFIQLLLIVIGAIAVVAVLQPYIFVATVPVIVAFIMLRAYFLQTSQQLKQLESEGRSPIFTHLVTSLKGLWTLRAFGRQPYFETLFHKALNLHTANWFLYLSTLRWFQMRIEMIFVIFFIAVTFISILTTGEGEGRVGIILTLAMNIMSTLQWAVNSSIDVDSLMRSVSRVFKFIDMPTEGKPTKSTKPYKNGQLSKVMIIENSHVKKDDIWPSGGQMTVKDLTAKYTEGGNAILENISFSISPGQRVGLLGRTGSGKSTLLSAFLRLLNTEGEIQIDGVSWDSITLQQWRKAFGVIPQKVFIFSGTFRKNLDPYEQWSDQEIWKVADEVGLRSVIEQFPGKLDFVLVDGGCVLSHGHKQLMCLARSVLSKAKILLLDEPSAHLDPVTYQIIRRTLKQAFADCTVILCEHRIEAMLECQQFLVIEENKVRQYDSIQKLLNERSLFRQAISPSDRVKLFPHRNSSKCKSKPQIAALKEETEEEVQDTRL
compound,measurement,setting,value
"CC/C=C\C/C=C\C/C=C\C/C=C\C/C=C\C/C=C\CCC(=O)NCCSSC(C)(C)CNC(=O)c1cccnc1 [II-3, N-(2-((2-((4Z,7Z,10Z,13Z,16Z,19Z)-docosa-4,7,10,13,16,19-hexaenamido)ethyl)disulfanyl)-2-methylpropyl)nicotinamide]",plasma stability (parent compound remaining),"[1]; rat plasma, 5 μM, 0.5, 1 and 2 hour time points",complete plasma stability
same,plasma stability compared with II-2,[1]; summary of Example 17 (mouse and rat plasma),better plasma stability
same,short circuit current trace,"ΔF508 CFTR; 10 μM with VX-770 or VX-809+VX-770, 24 hours",functionally active
same,steady state response upon the addition of Forskolin,"ΔF508 CFTR; II-3 (10 μM)+VX-770 compared with vehicle+VX-770, 24 hours",modest response
same,"steady state response upon the addition of Forskolin, % of control",ΔF508 CFTR; [2],143.6%
same,"steady state response upon the addition of the CFTRinh-172, % of control",ΔF508 CFTR; [2],144.0%
